# Laboratory results reported in patent publication US11008331B2, “Hepatitis B virus surface antigen inhibitor” (FUJIAN COSUNTER PHARMACEUTICAL CO., LTD., priority 2017, dated 2021).
# Where two headings read alike, the source gives them in different places.
# Columns and labels:
# [1] = test system: HBV DNA; experiment: HBV in vitro test: HBV DNA in HepG2.2.15 culture supernatant by real time-qPCR; assay type: cell-based, Hepatitis B Virus (HBV)
# Method: (§1) The content of HBV DNA in HepG2. 2. 15 cell culture supernatant was detected by a real-time quantitative qPCR assay (real time-qPCR), and the content of HBV surface antigen was detected by enzyme-linked immunosorbent assay (ELISA), the compound EC50 value was used as an index to evaluate the inhibitory effect of the compound on HBV.
# (§2) 3.1. HepG2. 2. 15 cells (4×10^4 cells/well) was plated into a 96-well plate and cultured overnight at 37° C., 5% CO2.
# (§3) 3.2. The next day, the compound was diluted to 8 concentrations, 3-folds gradients dilution. The compound of different gradients were added into the culture well, double duplicated the wells. The final concentration of the DMSO was 0.5% in the culture solution. 10 μM ETV was used as 100% inhibition control; 0.5% of DMSO was used as 0% inhibition control.
# (§4) 3.3. On the fifth day, the culture solution was replaced by fresh culture solution containing the compound.
# (§5) 3.4. On the eighth day, the culture solution in the culture well was collected, and the content of hepatitis B virus S antigen was measured by ELISA with partial samples; and still partial samples was taken for extraction of DNA using high-throughput DNA purification kit (Qiagen-51162).
# 3.6. 15 μL reaction mixture was added into each well of the 96-well PCR plate, then in each well was added 10 μL sample DNA or standard product of HBV DNA.
# 3.7. The qPCR plate was sealed with optical sealing film, centrifuged at 1500 rpm for 2 minutes, and then the HBV copy number of each sample was quantitatively detected by fluorescence quantitative qPCR. The operation procedure of qPCR is as follows
# Calculation of the Inhibition Percentage % Inh.=(1−value in the sample/DMSO control group value)×100%.
# The dose-response curves was fitted by GraphPad Prism software, and the 50% inhibited concentration EC50 value of the compound against HBV was calculated.
# [2] = test system: HBV surface antigen (HBsAg); experiment: HBV in vitro test: HBV surface antigen in HepG2.2.15 culture supernatant by ELISA; assay type: cell-based, Hepatitis B Virus (HBV)
# Method: as §1, §2, §3, §4, §5
# 3.9. Content determination of hepatitis B virus S antigen measured by ELISA
# 50 μL sample and standard sample were taken and added into the reaction plate respectively, then 50 μL enzyme conjugate was added into each of the wells, shaked to mix well, then kept in warm bath at 37° C. for 60 min, and the plate was washed with cleansing solution for 5 times, 50 μL luminescent substrate was added into each wells, mixed well and reacted at r.t. for 10 min in the dark, the chemiluminescence intensity was finally detected with ELISA. The inhibition percentage of each compound was calculated by the following formula: inhibition rate (%)=(1−value in sample/DMSO control group value)×100%. The dose-response curves was fitted by GraphPad Prism software, and the 50% inhibited concentration EC50 value of the compound against HBV was calculated.
# [3] = Hepatitis B virus, HepG2.2.15, HepG2. 2. 15 cell culture supernatant, collected on the eighth day, real time-qPCR, read-out: HBV-DNA experimental results EC50
# [4] = Hepatitis B virus, HepG2.2.15, read-out: HBsAg experimental results EC50
# [5] = Hepatitis B virus, HepG2.2.15, read-out: HBV-DNA experimental results EC50
Compound,"EC50 [1, 3]","EC50 [2, 4]","EC50 [1, 5]","EC50 ([1]; HepG2. 2. 15 cell culture supernatant, collected on the eighth day, real time-qPCR, read-out: HBV-DNA experimental results EC50)","EC50 ([2]; HepG2. 2. 15 cell culture supernatant, collected on the eighth day, ELISA, read-out: HBsAg experimental results EC50)"
COCCCOc1cc2c(cc1Cl)-c1cc(=O)c(C(=O)O)cn1C(c1cccc(F)c1F)O2 (stereo not drawn) [Embodiment 31],90.5 nM,203 nM,–,–,–
COCCCOc1cc2c(cc1Cl)-c1cc(=O)c(C(=O)O)cn1C(c1nccs1)O2 (stereo not drawn) [Embodiment 14],–,6.88 nM,6.88 nM,–,–
O=C(O)c1cn2c(cc1=O)-c1cc(Cl)c(OCCCN3CCCC3=O)cc1OC2c1ccccc1 (stereo not drawn) [Embodiment 12],78.1 nM,213 nM,–,–,–
COCCCOc1cc2c(cc1Cl)-c1cc(=O)c(C(=O)O)cn1C(c1cc(F)cc(F)c1)O2 (stereo not drawn) [Embodiment 30],18.5 nM,28.2 nM,–,–,–
COCCCOc1cc2c(cc1Cl)-c1cc(=O)c(C(=O)O)cn1C(c1cc(F)ccc1F)O2 (stereo not drawn) [Embodiment 32],35.2 nM,71 nM,–,–,–
COCCCOc1cc2c(cc1Cl)-c1cc(=O)c(C(=O)O)cn1C(c1cc(F)ccc1OC)O2 (stereo not drawn) [Embodiment 25],18.7 nM,35.9 nM,–,–,–
COCCCOc1cc2c(cc1Cl)-c1cc(=O)c(C(=O)O)cn1C(c1ccc(OC)cc1F)O2 (stereo not drawn) [Embodiment 34],21.3 nM,29.6 nM,–,–,–
C#CCOc1cc2c(cc1Cl)-c1cc(=O)c(C(=O)O)cn1C(c1ccccc1)O2 (stereo not drawn) [Embodiment 9],74.1 nM,138 nM,–,–,–
COCCCOc1cc2c(cc1Cl)-c1cc(=O)c(C(=O)O)cn1C(c1cnsc1)O2 (stereo not drawn) [Embodiment 37],10.6 nM,26.6 nM,–,–,–
CC(C)(CO)COc1cc2c(cc1Cl)-c1cc(=O)c(C(=O)O)cn1C(c1ccccc1)O2 (stereo not drawn) [Embodiment 2],34.5 nM,55.8 nM,–,–,–
O=C(O)c1cn2c(cc1=O)-c1cc(Cl)c(OCCN3CCOCC3)cc1OC2c1ccccc1 (stereo not drawn) [Embodiment 5],15.1 nM,50 nM,–,–,–
COCCOc1cc2c(cc1Cl)-c1cc(=O)c(C(=O)O)cn1C(c1ccccc1)O2 (stereo not drawn) [Embodiment 3],27.6 nM,47.6 nM,–,–,–
COCCCOc1cc2c(cc1Cl)-c1cc(=O)c(C(=O)O)cn1C(c1ncc(C)s1)O2 (stereo not drawn) [Embodiment 41],17.8 nM,58 nM,–,–,–
COCCCOc1cc2c(cc1Cl)-c1cc(=O)c(C(=O)O)cn1C(c1nc(C)c(C)s1)O2 (stereo not drawn) [Embodiment 28],278 nM,152 nM,–,–,–
O=C(O)c1cn2c(cc1=O)-c1cc(Cl)c(OCCCCCO)cc1OC2c1ccccc1 (stereo not drawn) [Embodiment 8],20.8 nM,66.2 nM,–,–,–
COCCCOc1cc2c(cc1Cl)-c1cc(=O)c(C(=O)O)cn1C(c1c(F)cccc1F)O2 (stereo not drawn) [Embodiment 29],4.11 nM,12.2 nM,–,–,–
COCCCOc1cc2c(cc1Cl)-c1cc(=O)c(C(=O)O)cn1C(c1ccc(C)cc1)O2 (stereo not drawn) [Embodiment 23],85.9 nM,127 nM,–,–,–
COCCCOc1cc2c(cc1Cl)-c1cc(=O)c(C(=O)O)cn1C(c1ccccc1C)O2 (stereo not drawn) [Embodiment 21],7.12 nM,16.3 nM,–,–,–
COCCCOc1cc2c(cc1Cl)-c1cc(=O)c(C(=O)O)cn1C(c1cc(F)cc(OC)c1)O2 (stereo not drawn) [Embodiment 24],59.3 nM,35.5 nM,–,–,–
COCCCOc1cc2c(cc1Cl)-c1cc(=O)c(C(=O)O)cn1C(c1c(F)cccc1Cl)O2 (stereo not drawn) [Embodiment 27],23.6 nM,39.1 nM,–,–,–
COCCCOc1cc2c(cc1Cl)-c1cc(=O)c(C(=O)O)cn1C(c1ccc(F)cc1)O2 (stereo not drawn) [Embodiment 18],40.8 nM,73.7 nM,–,–,–

Compound,"EC50 [1, 3]","EC50 [2, 4]","EC50 [1, 5]","EC50 ([1]; HepG2. 2. 15 cell culture supernatant, collected on the eighth day, real time-qPCR, read-out: HBV-DNA experimental results EC50)","EC50 ([2]; HepG2. 2. 15 cell culture supernatant, collected on the eighth day, ELISA, read-out: HBsAg experimental results EC50)"
O=C(O)c1cn2c(cc1=O)-c1cc(Cl)c(OCC(F)F)cc1OC2c1ccccc1 (stereo not drawn) [Embodiment 4],15 nM,31.9 nM,–,–,–
COCCCOc1cc2c(cc1OC)-c1cc(=O)c(C(=O)O)cn1C(c1cscn1)O2 (stereo not drawn) [Embodiment 43],19.4 nM,15.4 nM,–,–,–
COCCCOc1cc2c(cc1Cl)-c1cc(=O)c(C(=O)O)cn1C(c1cnsc1C)O2 (stereo not drawn) [Embodiment 35],–,–,–,25.1 nM,11 nM
COCCCOc1cc2c(cc1Cl)-c1cc(=O)c(C(=O)O)cn1C(c1ccc(Cl)cc1)O2 (stereo not drawn) [Embodiment 17],–,254 nM,254 nM,–,–
COCCCOc1cc2c(cc1Cl)-c1cc(=O)c(C(=O)O)cn1C(c1ccccc1F)O2 (stereo not drawn) [Embodiment 19],3.88 nM,20.9 nM,–,–,–
COCCCOc1cc2c(cc1Cl)-c1cc(=O)c(C(=O)O)cn1C(c1cccc(F)c1)O2 (stereo not drawn) [Embodiment 20],11 nM,22.5 nM,–,–,–
COCCCOc1cc2c(cc1Cl)-c1cc(=O)c(C(=O)O)cn1C(c1cccc(Cl)c1)O2 (stereo not drawn) [Embodiment 16],–,45.3 nM,45.3 nM,–,–
O=C(O)c1cn2c(cc1=O)-c1cc(Cl)c(OCC(F)(F)CO)cc1OC2c1ccccc1 (stereo not drawn) [Embodiment 10],51 nM,102 nM,–,–,–
O=C(O)c1cn2c(cc1=O)-c1cc(Cl)c(OCCCO)cc1OC2c1ccccc1 (stereo not drawn) [Embodiment 6],6.04 nM,20.3 nM,–,–,–
COCCCOc1cc2c(cc1Cl)-c1cc(=O)c(C(=O)O)cn1C(c1cccc(C)c1)O2 (stereo not drawn) [Embodiment 22],20.6 nM,38.2 nM,–,–,–
Cc1csc(C2Oc3cc(OCC4CC4)c(Cl)cc3-c3cc(=O)c(C(=O)O)cn32)n1 (stereo not drawn) [Embodiment 42],2.19 nM,7.88 nM,–,–,–
COCCCOc1cc2c(cc1Cl)-c1cc(=O)c(C(=O)O)cn1C(c1ccccc1Cl)O2 (stereo not drawn) [Embodiment 15],8.2 nM,–,–,–,–
O=C(O)c1cn2c(cc1=O)-c1cc(Cl)c(OCC3CC3)cc1OC2c1ncc(Cl)s1 (stereo not drawn) [Embodiment 44],129 nM,212 nM,–,–,–
COCCCOc1cc2c(cc1Cl)-c1cc(=O)c(C(=O)O)cn1C(c1cc(OC)ccc1F)O2 (stereo not drawn) [Embodiment 26],152 nM,101 nM,–,–,–
CS(=O)(=O)CCCOc1cc2c(cc1Cl)-c1cc(=O)c(C(=O)O)cn1C(c1ccccc1)O2 (stereo not drawn) [Embodiment 11],40.8 nM,73.9 nM,–,–,–
COCCCOc1cc2c(cc1Cl)-c1cc(=O)c(C(=O)O)cn1C(c1cncs1)O2 (stereo not drawn) [Embodiment 38],20.4 nM,12.3 nM,–,–,–
O=C(O)c1cn2c(cc1=O)-c1cc(Cl)c(OCCO)cc1OC2c1ccccc1 (stereo not drawn) [Embodiment 7],211 nM,299 nM,–,–,–
COCCCOc1cc2c(cc1Cl)-c1cc(=O)c(C(=O)O)cn1C(c1csc(Cl)c1Cl)O2 (stereo not drawn) [Embodiment 48],> 1000 nM,103 nM,–,–,–
COc1cc2c(cc1Cl)-c1cc(=O)c(C(=O)O)cn1C(c1ccccc1)O2 (stereo not drawn) [Embodiment 1],11.8 nM,27.6 nM,–,–,–
COCCCOc1cc2c(cc1Cl)-c1cc(=O)c(C(=O)O)cn1C(c1ccc(F)cc1F)O2 (stereo not drawn) [Embodiment 33],12.6 nM,10.2 nM,–,–,–
